Source: EP1541198A1, “Cycloalkyl compounds as anti-inflammatory, immunomodulatory and anti-proliferatory agents” (4SC AG, priority 2003, dated 2005)

target: T1, human DHODH (Homo sapiens, UniProt Q02127); test: Inhibition Assay of DHODH activity; type: biochemical; conditions: recombinant human DHODH; 50 mM TrisHCl, pH 8,0, 30°C; decrease in absorption at 600 nm
T1 construct: Prof; M. Löffler, Marburg, Germany (gift, not a commercial vendor)
Experimental: 4. Inhibition Assay of DHODH activity
The standard assay mixture contained 50 µM decyclo ubichinone, 100 µM dihydroorotate, 60 µM 2,6-dichloroindophenol, as well as 20 mU DHODH. The volume activity of the recombinant enzyme used was 30 U/ml. Measurements were conducted in 50 mM TrisHCl (150 mM KCl, 0,1% Triton X-100, pH 8,0) at 30°C in a final volume of 1 ml. The components were mixed, and the reaction was started by adding dihydroorotate. The course of reaction was followed by spectrophotometrically measuring the decrease in absorption at 600 nm for 2 min. Inhibitory studies were conducted in a standard assay with additional variable amounts of inhibitor. […] These investigations were carried out with recombinant human as well as with recombinant murine DHODH provided by Prof. M. Löffler, Marburg, Germany [M. Löffler, Chem. Biol. Interact.

T1 sequence (Q02127 whole entry): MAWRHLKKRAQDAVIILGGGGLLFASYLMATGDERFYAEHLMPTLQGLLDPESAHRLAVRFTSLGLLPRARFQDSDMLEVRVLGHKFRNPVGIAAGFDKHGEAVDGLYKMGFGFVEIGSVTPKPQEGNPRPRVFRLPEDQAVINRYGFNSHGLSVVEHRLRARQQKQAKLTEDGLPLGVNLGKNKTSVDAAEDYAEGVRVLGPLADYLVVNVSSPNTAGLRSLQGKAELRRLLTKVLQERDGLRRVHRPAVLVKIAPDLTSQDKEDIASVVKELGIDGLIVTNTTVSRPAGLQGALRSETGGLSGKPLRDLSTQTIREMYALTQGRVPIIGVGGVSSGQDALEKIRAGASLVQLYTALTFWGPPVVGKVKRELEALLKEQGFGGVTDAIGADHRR

Compared with COc1cccc(-c2ccc(NC(=O)[C@@H]3CCC[C@H]3C(=O)O)c(F)c2)c1 (relative stereo) [Example 1, trans 2-(3-Fluoro-3' methoxy-biphenyl-4-ylcarbamoyl)-cyclopentane carboxylic acid], COc1cccc(-c2ccc(NC(=O)[C@H]3CCC[C@H]3C(=O)O)c(F)c2)c1 (relative stereo) [Example 2, cis 2-(3-Fluoro-3' methoxy-biphenyl-4-ylcarbamoyl)-cyclopentane carboxylic acid] is lower in IC50: 5 to 20 µM for the first, < 5 µM for the second. The second is the more potent here.

O=C(O)C1CCCC1C(=O)Nc1c(F)cc(-c2cccc(OC(F)(F)F)c2)cc1F (stereo not drawn) [Example 9, 2-(3,5-Difluoro-3'-trifluoromethoxy-biphenyl-4-ylcarbamoyl)-cyclopentane carboxylic acid] and CCOc1cccc(-c2cc(F)c(NC(=O)C3CCCC3C(=O)O)c(F)c2)c1 (stereo not drawn) [Example 5, 2-(3'-Ethoxy-3,5-difluoro-biphenyl-4-ylcarbamoyl)-cyclopentane carboxylic acid] cannot be ordered by IC50: < 5 µM for the first, < 5 µM for the second.

O=C(O)C1CCCC1C(=O)Nc1c(F)c(F)c(-c2cccc(OC(F)(F)F)c2)c(F)c1F (stereo not drawn) [Example 8, 2-(2,3,5,6-Tetrafluoro 3'-trifluoromethoxy-biphenyl-4-ylcarbamoyl)-cyclo-pentane carboxylic acid] and O=C(O)C1CCCC1C(=O)Nc1c(F)cc(-c2ccccc2Cl)cc1F (stereo not drawn) [Example 3, 2-(2'-Chloro-3,5-difluoro-biphenyl-4-ylcarbamoyl)-cyclopentane carboxylic acid] cannot be ordered by IC50: < 5 µM for the first, < 5 µM for the second.

First: O=C(O)C1CCCC1C(=O)Nc1ccc(-c2ccccc2)cc1 (stereo not drawn) [Example 7, 2-(Biphenyl-4-ylcarbamoyl)-cyclopentane carboxylic acid]
Second: CCOc1ccccc1-c1cc(F)c(NC(=O)C2CCCC2C(=O)O)c(F)c1 (stereo not drawn) [Example 6, 2-(2'-Ethoxy-3,5-difluoro-biphenyl-4-ylcarbamoyl)-cyclopentane carboxylic acid]
The IC50 of the first is lower: < 5 µM for the first, 5 to 20 µM for the second.

COc1ccc(-c2cc(F)c(NC(=O)C3CCCC3C(=O)O)c(F)c2)c(OC)c1 (stereo not drawn) [Example 4, 2-(3,5-Difluoro-2',4'-dimethoxy-biphenyl-4-ylcarbamoyl)-cyclopentane carboxylic acid] was tested, and the IC50 was 5 to 20 µM.
